For experiment [1], the system named is Mycobacterium tuberculosis. As to the kind of experiment: Antimycobacterial activity against Mycobacterium tuberculosis H37Rv transformed with pSMT1 luciferase reporter plasmid assessed as growth inhibition after 6 days by luminometry. The experiment is classed as functional. Conditions: for GI50: Mycobacterium tuberculosis, H37Rv, 144 h.
Experiment [2] relates to Mycobacterium tuberculosis. As to the kind of experiment: Antimicrobial activity against multi-drug resistant Mycobacterium tuberculosis LAM-1 strain clinical isolate assessed as critical concentration to induce 99% growth reduction at 10 to 20 ug/mL by BACTEC_MGIT_960-TB detection system. The experiment is classed as functional.
Experiment [3] has as its system Mycobacterium tuberculosis. Briefly: Antimicrobial activity against multi-drug resistant Mycobacterium tuberculosis LAM-1 strain clinical isolate assessed as growth reduction by BACTEC_MGIT_960-TB detection system. The experiment is classed as functional.
For experiment [4], the system named is Mycobacterium tuberculosis. Briefly: Antimicrobial activity against multi-drug resistant Mycobacterium tuberculosis LAM-1 strain clinical isolate assessed as growth reduction at 0.1 ug/mL by BACTEC_MGIT_960-TB detection system. The experiment is classed as functional, organism-based.

Experimental findings from ChEMBL document CHEMBL3352001, “2,4-Dialkyl-8,9,10,11-tetrahydrobenzo[g]pyrimido[4,5-c]isoquinoline-1,3,7,12(2H,4H)-tetraones as new leads against Mycobacterium tuberculosis” (Eur J Med Chem, 2014) are described below.

Structures are written as SMILES. In brackets after ≈: the same amount, converted by molar mass. Several values for one entry are separate records, joined by “and”; a condition that tells them apart may be missing. Equal values may be shown once. Activity calls are given as the source filed them. The calls are words filed in the database; no cut-off is given here.

As to `CCCCCCn1c(=O)c2c3c(cnc2n(CCCCCC)c1=O)C(=O)C1=C(C3=O)C2CCC1C2` (stereo not drawn), in experiment [1], the GI90 is 5.43 µg/mL (≈ 11.4 µM), the GI99 was 11.6 µg/mL and the 50% growth inhibitory concentration (GI50) stood at 1.22 µg/mL (≈ 2.55 µM).
Consider `CCn1c(=O)c2c3c(cnc2n(CC)c1=O)C(=O)C1=C(C3=O)C2CCC1C2` (stereo not drawn), for which, in experiment [1], the GI90 is 5.32 µg/mL (≈ 14.6 µM), the GI99 is 9.21 µg/mL and the GI50 is 1.69 µg/mL (≈ 4.63 µM).
On to `CCCCCCCn1c(=O)c2c3c(cnc2n(CCCCCCC)c1=O)C(=O)C1=C(C3=O)C2CCC1C2` (stereo not drawn), for which, in experiment [1], the GI90 came to 2.45 µg/mL (≈ 4.85 µM), the GI99 came to 5.57 µg/mL and the GI50 came out at 0.63 µg/mL (≈ 1.25 µM). For the same compound, the INH in experiment [2] came out at 10 µg/mL.
For `CC(C)n1c(=O)c2c3c(cnc2n(C(C)C)c1=O)C(=O)C1=C(C3=O)C2CCC1C2` (stereo not drawn), in experiment [1], the GI90 worked out at 1.5 µg/mL (≈ 3.81 µM), the GI99 was 3 µg/mL and the GI50 worked out at 0.52 µg/mL (≈ 1.32 µM). For the same compound, the INH in experiment [2] was 5 µg/mL. In experiment [3], the minimal inhibitory concentration (MIC) worked out at 5 µg/mL (≈ 12.7 µM).
Regarding `CCCCCn1c(=O)c2c3c(cnc2n(CCCCC)c1=O)C(=O)C1=C(C3=O)C2CCC1CC2`, in experiment [1], the GI90 amounted to 4.78 µg/mL (≈ 10.3 µM), the GI99 is 13.37 µg/mL and the GI50 stood at 1.49 µg/mL (≈ 3.21 µM).
Consider `CCCCCCCn1c(=O)c2c3c(cnc2n(CCCCCCC)c1=O)C(=O)C1=C(C3=O)C2CCC1CC2`, for which, in experiment [1], the GI90 turned out to be 3.78 µg/mL (≈ 7.27 µM), the GI99 is 6.89 µg/mL and the concentration for 50% growth inhibition (GI50) is 1.32 µg/mL (≈ 2.54 µM). For the same compound, the INH in experiment [2] was determined as 10 µg/mL.
For `CC(C)Cn1c(=O)c2c3c(cnc2n(CC(C)C)c1=O)C(=O)C1=C(C3=O)C2CCC1CC2`, in experiment [1], the GI90 is 9.31 µg/mL (≈ 21.4 µM), the GI99 amounted to 12.28 µg/mL and the GI50 turned out to be 4.36 µg/mL (≈ 10 µM).
As to `CCCn1c(=O)c2c3c(cnc2n(CCC)c1=O)C(=O)C1=C(C3=O)C2CCC1C2` (stereo not drawn), in experiment [1], the GI90 is 4.28 µg/mL (≈ 10.9 µM), the GI99 was 6.23 µg/mL and the GI50 amounted to 1.73 µg/mL (≈ 4.4 µM).
Turning to `CC(C)n1c(=O)c2c3c(cnc2n(C(C)C)c1=O)C(=O)C1=C(C3=O)C2CCC1CC2`, in experiment [1], the GI90 is 2.32 µg/mL (≈ 5.69 µM), the GI99 amounted to 4.89 µg/mL and the GI50 is 0.73 µg/mL (≈ 1.79 µM). Besides, the INH in experiment [2] turned out to be 10 µg/mL.
Turning to `CC(C)C1CCC(=O)c2c1ncc1c2C(=O)C2=C(C1=O)C1CCC2C1` (stereo not drawn), in experiment [1], the GI99 was 24.66 µg/mL and 48.06 µg/mL; the concentration for 50% growth inhibition (GI50) was 5.55 µg/mL (≈ 16.5 µM).
Consider `CC(C)Cn1c(=O)c2c3c(cnc2n(CC(C)C)c1=O)C(=O)C1=C(C3=O)C2CCC1C2` (stereo not drawn), for which, in experiment [1], the GI90 was 5.3 µg/mL (≈ 12.6 µM), the GI99 is 11.01 µg/mL and the concentration for 50% growth inhibition (GI50) worked out at 2.08 µg/mL (≈ 4.93 µM).
With `CCCCCn1c(=O)c2c3c(cnc2n(CCCCC)c1=O)C(=O)C1=C(C3=O)C2CCC1C2` (stereo not drawn), in experiment [1], the GI90 worked out at 4.09 µg/mL (≈ 9.1 µM), the GI99 was determined as 9.54 µg/mL and the GI50 was 1.26 µg/mL (≈ 2.8 µM).
Taken in the same sequence, the figures for `Cn1c(=O)c2c3c(cnc2n(C)c1=O)C(=O)C1=C(C3=O)C2CCC1CC2` were 6.98 µg/mL (≈ 19.9 µM), 15.43 µg/mL and 2.83 µg/mL (≈ 8.05 µM).
The corresponding values for `CCCCn1c(=O)c2c3c(cnc2n(CCCC)c1=O)C(=O)C1=C(C3=O)C2CCC1CC2` are 5.2 µg/mL (≈ 11.9 µM), 9.6 µg/mL and 1.84 µg/mL (≈ 4.22 µM).
With `Cn1c(=O)c2c3c(cnc2n(C)c1=O)C(=O)C1=C(C3=O)C2CCC1C2` (stereo not drawn), in experiment [1], the GI90 was determined as 5.87 µg/mL (≈ 17.4 µM), the GI99 is 10.43 µg/mL and the concentration for 50% growth inhibition (GI50) is 1.58 µg/mL (≈ 4.68 µM).
Taken in the same sequence, the figures for `CC(C)CCn1c(=O)c2c3c(cnc2n(CCC(C)C)c1=O)C(=O)C1=C(C3=O)C2CCC1C2` (stereo not drawn) were 8.11 µg/mL (≈ 18 µM), 16.32 µg/mL and 2.41 µg/mL (≈ 5.36 µM).
As to `NNC(=O)c1ccncc1` [ISONIAZID], in experiment [1], the GI99 was 0.04 µg/mL and 0.06 µg/mL; the GI50 turned out to be 0.01 µg/mL (≈ 0.0729 µM). Moreover, in experiment [4], the inhibition entry is “inactive”.
In the case of `CC(C)C1CCc2ncc3c(c2C1=O)C(=O)C1=C(C3=O)C2CCC1C2` (stereo not drawn), in experiment [1], the GI90 is 39.2 µg/mL (≈ 117 µM), the GI99 is more than 100 µg/mL and the GI50 was determined as 20.4 µg/mL (≈ 60.8 µM).
Taken in the same sequence, the figures for `CCn1c(=O)c2c3c(cnc2n(CC)c1=O)C(=O)C1=C(C3=O)C2CCC1CC2` were 4.33 µg/mL (≈ 11.4 µM), 12.06 µg/mL and 2.55 µg/mL (≈ 6.72 µM).
As for `CCCCCCn1c(=O)c2c3c(cnc2n(CCCCCC)c1=O)C(=O)C1=C(C3=O)C2CCC1CC2`, in experiment [1], the GI90 is 6.13 µg/mL (≈ 12.5 µM), the GI99 stood at 14.89 µg/mL and the concentration for 50% growth inhibition (GI50) is 1.36 µg/mL (≈ 2.77 µM).
In the case of `CC(C)CCn1c(=O)c2c3c(cnc2n(CCC(C)C)c1=O)C(=O)C1=C(C3=O)C2CCC1CC2`, in experiment [1], the GI90 amounted to 10.33 µg/mL (≈ 22.3 µM), the GI99 was determined as 22.88 µg/mL and the GI50 amounted to 4.9 µg/mL (≈ 10.6 µM).
Regarding `CCCCn1c(=O)c2c3c(cnc2n(CCCC)c1=O)C(=O)C1=C(C3=O)C2CCC1C2` (stereo not drawn), in experiment [1], the GI90 amounted to 4.59 µg/mL (≈ 10.9 µM), the GI99 worked out at 7.23 µg/mL and the GI50 came to 1.46 µg/mL (≈ 3.46 µM).
The corresponding values for `CCCn1c(=O)c2c3c(cnc2n(CCC)c1=O)C(=O)C1=C(C3=O)C2CCC1CC2` are 5.98 µg/mL (≈ 14.7 µM), 7.34 µg/mL and 2.59 µg/mL (≈ 6.36 µM).
